Activity calls are given as the source filed them. How the calls were made is not given here.

The data set has as its system CCRIS mutagenicity, Ames/micronucleus/aberration tests. In words: CCRIS mutagenicity studies.
Setting [1] is: Test System: AMES SALMONELLA TYPHIMURIUM, Strain/Indicator: TA97, Metabolic Activation: NONE, Method: PREINCUBATION
The mark [2] stands for this setting: Test System: AMES SALMONELLA TYPHIMURIUM, Strain/Indicator: TA97, Metabolic Activation: RAT, LIVER, S-9, AROCLOR 1254 (10 OR 30%), Method: PREINCUBATION
Setting [3] is: Test System: AMES SALMONELLA TYPHIMURIUM, Strain/Indicator: TA98, Metabolic Activation: HAMSTER, LIVER, S-9, AROCLOR 1254 (10 OR 30%), Method: PREINCUBATION
Where [4] appears, read: Test System: AMES SALMONELLA TYPHIMURIUM, Strain/Indicator: TA98, Metabolic Activation: NONE, Method: PREINCUBATION
The mark [5] stands for this setting: Test System: AMES SALMONELLA TYPHIMURIUM, Strain/Indicator: TA98, Metabolic Activation: RAT, LIVER, S-9, AROCLOR 1254 (10 OR 30%), Method: PREINCUBATION
Setting [6] is: Test System: AMES SALMONELLA TYPHIMURIUM, Strain/Indicator: TA100, Metabolic Activation: NONE, Method: PREINCUBATION
The mark [7] stands for this setting: Test System: AMES SALMONELLA TYPHIMURIUM, Strain/Indicator: TA100, Metabolic Activation: RAT, LIVER, S-9, AROCLOR 1254 (10 OR 30%), Method: PREINCUBATION
[8] abbreviates: Test System: AMES SALMONELLA TYPHIMURIUM, Strain/Indicator: TA1535, Metabolic Activation: NONE, Method: PREINCUBATION
Where [9] appears, read: Test System: AMES SALMONELLA TYPHIMURIUM, Strain/Indicator: TA1535, Metabolic Activation: RAT, LIVER, S-9, AROCLOR 1254 (10 OR 30%), Method: PREINCUBATION
[10] abbreviates: Test System: AMES SALMONELLA TYPHIMURIUM, Strain/Indicator: TA98, Metabolic Activation: NONE, Method: STANDARD PLATE.
[11] abbreviates: Test System: AMES SALMONELLA TYPHIMURIUM, Strain/Indicator: TA100, Metabolic Activation: NONE, Method: STANDARD PLATE.

Regarding `ClC1C(Br)C(Br)C(Br)C(Br)C1Br` (centres undefined), the mutagenic call (Test System: AMES SALMONELLA TYPHIMURIUM, Strain/Indicator: TA97, Metabolic Activation: HAMSTER, LIVER, S-9, AROCLOR 1254 (5, 10 OR 30%), Method: PREINCUBATION) is “inactive; negative”; the mutagenic call under setting [1] is “inactive; negative”; the mutagenic call under setting [2] was “inactive; negative”; the mutagenic call under setting [3] is “inactive; negative”; the mutagenic call under setting [4] is “inactive; negative”; the mutagenic call under setting [5] was “inactive; negative”. The mutagenic call reads like this: (Test System: AMES SALMONELLA TYPHIMURIUM, Strain/Indicator: TA100, Metabolic Activation: HAMSTER, LIVER, S-9, AROCLOR 1254 (10%), Method: PREINCUBATION) “inactive; negative”; (Test System: AMES SALMONELLA TYPHIMURIUM, Strain/Indicator: TA100, Metabolic Activation: HAMSTER, LIVER, S-9, AROCLOR 1254 (30%), Method: PREINCUBATION) “inactive; negative”; under setting [6], “inactive; negative”; under setting [7], “inactive; negative”; (Test System: AMES SALMONELLA TYPHIMURIUM, Strain/Indicator: TA1535, Metabolic Activation: HAMSTER, LIVER, S-9, AROCLOR 1254 (5 OR 10%), Method: PREINCUBATION) “inactive; negative”; (Test System: AMES SALMONELLA TYPHIMURIUM, Strain/Indicator: TA1535, Metabolic Activation: HAMSTER, LIVER, S-9, AROCLOR 1254 (30%), Method: PREINCUBATION) “inactive; negative”. The mutagenic call by setting is: under setting [8], “inactive; negative”; under setting [9], “inactive; negative”.
On to `CC(=O)O[C@H]1C[C@@H]2[C@@]3(C)CCCC(C)(C)[C@@H]3CC[C@@]2(C)[C@@H]2CC=C(C=O)[C@H](C=O)[C@@]12C`, for which the mutagenic call runs as follows: under setting [10], “inactive; negative”; under setting [11], “inactive; negative”; (Test System: AMES SALMONELLA TYPHIMURIUM, Strain/Indicator: TA2637, Metabolic Activation: NONE, Method: STANDARD PLATE) “inactive; negative”.
Consider `O=[N+]([O-])c1cccc2nc3cccc([N+](=O)[O-])c3nc12`, for which the mutagenic call by setting is: (Test System: AMES SALMONELLA TYPHIMURIUM, Strain/Indicator: TA98(NR), Metabolic Activation: NONE, Method: PREINCUBATION) “active; positive”; under setting [4], “active; positive”.
`Oc1ccccc1-c1nc2ccccc2o1`: the mutagenic call by setting is: under setting [10], “inactive; negative”; (Test System: AMES SALMONELLA TYPHIMURIUM, Strain/Indicator: TA98, Metabolic Activation: S-9, Method: STANDARD PLATE) “inactive; negative”.
Consider `C[C@@H]1C[C@@H]([C@H](O)CC2CC(=O)NC(=O)C2)C(=O)[C@@H](C)C1`, for which the mutagenic call runs as follows: (Test System: AMES SALMONELLA TYPHIMURIUM, Strain/Indicator: TA97, Metabolic Activation: HAMSTER, LIVER, S-9, AROCLOR 1254 (10 OR 30%), Method: PREINCUBATION) “inactive; negative”; under setting [1], “inactive; negative”; under setting [2], “inactive; negative”; under setting [3], “inactive; negative”; under setting [4], “inactive; negative”; under setting [10], “inactive; negative”. Also, the mutagenic call is “inactive; negative” under setting [5]; “inactive; negative” (Test System: AMES SALMONELLA TYPHIMURIUM, Strain/Indicator: TA98, Metabolic Activation: RAT, LIVER, S-9, AROCLOR, Method: STANDARD PLATE); “inactive; negative” (Test System: AMES SALMONELLA TYPHIMURIUM, Strain/Indicator: TA100, Metabolic Activation: HAMSTER, LIVER, S-9, AROCLOR 1254 (10 OR 30%), Method: PREINCUBATION); “inactive; negative” under setting [6]; “inactive; negative” under setting [11]; “inactive; negative” under setting [7]. Also, the mutagenic call was “inactive; negative” (Test System: AMES SALMONELLA TYPHIMURIUM, Strain/Indicator: TA100, Metabolic Activation: RAT, LIVER, S-9, AROCLOR, Method: STANDARD PLATE); “inactive; negative” (Test System: AMES SALMONELLA TYPHIMURIUM, Strain/Indicator: TA1535, Metabolic Activation: HAMSTER, LIVER, S-9, AROCLOR 1254 (10 OR 30%), Method: PREINCUBATION); “inactive; negative” under setting [8]; “inactive; negative” under setting [9]; “inactive; negative” (Test System: AMES SALMONELLA TYPHIMURIUM, Strain/Indicator: TA1537, Metabolic Activation: HAMSTER, LIVER, S-9, AROCLOR 1254 (30%), Method: PREINCUBATION); “inactive; negative” (Test System: AMES SALMONELLA TYPHIMURIUM, Strain/Indicator: TA1537, Metabolic Activation: NONE, Method: PREINCUBATION). The mutagenic call was “inactive; negative” (Test System: AMES SALMONELLA TYPHIMURIUM, Strain/Indicator: TA1537, Metabolic Activation: RAT, LIVER, S-9, AROCLOR 1254 (30%), Method: PREINCUBATION) and “active; positive” (Test System: MOUSE LYMPHOMA, Strain/Indicator: L5178Y (TK+/TK-), Metabolic Activation: NONE, Method: SUSPENSION/PLATE).
Consider `C=C(Cl)CSC(=S)N(CC)CC`, for which the mutagenic call under setting [11] was “inactive; negative”; the mutagenic call (Test System: AMES SALMONELLA TYPHIMURIUM, Strain/Indicator: TA100, Metabolic Activation: RAT, LIVER, CYTOSOL, AROCLOR 1254, Method: STANDARD PLATE) was “inactive; negative”; the mutagenic call (Test System: AMES SALMONELLA TYPHIMURIUM, Strain/Indicator: TA100, Metabolic Activation: RAT, LIVER, MICROSOMES, AROCLOR 1254, Method: STANDARD PLATE) is “inactive; negative”; the mutagenic call (Test System: AMES SALMONELLA TYPHIMURIUM, Strain/Indicator: TA100, Metabolic Activation: RAT, LIVER, MICROSOMES, CYTOSOL, AROCLOR 1254, Method: STANDARD PLATE) is “active; positive”; the mutagenic call (Test System: AMES SALMONELLA TYPHIMURIUM, Strain/Indicator: TA100, Metabolic Activation: RAT, LIVER, S-9, AROCLOR 1254, Method: STANDARD PLATE) is “active; positive”.
As for `COc1ccc(Cc2cnc(N)nc2N)cc1OC`, the mutagenic call is “inactive; negative” (Test System: AMES SALMONELLA TYPHIMURIUM, Strain/Indicator: TA98, Metabolic Activation: HAMSTER, LIVER, S-9, PHENOBARBITAL AND BETA-NAPHTHOFLAVONE, Method: PREINCUBATION); “inactive; negative” under setting [4]; “inactive; negative” (Test System: AMES SALMONELLA TYPHIMURIUM, Strain/Indicator: TA98, Metabolic Activation: RAT, LIVER, S-9, PHENOBARBITAL AND BETA-NAPHTHOFLAVONE, Method: PREINCUBATION); “active; positive” (Test System: AMES SALMONELLA TYPHIMURIUM, Strain/Indicator: TA100, Metabolic Activation: HAMSTER, LIVER, S-9, PHENOBARBITAL AND BETA-NAPHTHOFLAVONE, Method: PREINCUBATION); “inactive; negative” under setting [6]; “inactive; negative” (Test System: AMES SALMONELLA TYPHIMURIUM, Strain/Indicator: TA100, Metabolic Activation: RAT, LIVER, S-9, PHENOBARBITAL AND BETA-NAPHTHOFLAVONE, Method: PREINCUBATION). Moreover, the mutagenic call was “inactive; negative” (Test System: E.COLI, Strain/Indicator: WP2UVRA/PKM101, Metabolic Activation: NONE, Method: PREINCUBATION) and “inactive; negative” (Test System: E.COLI, Strain/Indicator: WP2UVRA/PKM101, Metabolic Activation: RAT LIVER S-9, PHENOBARBITAL AND 5,6-BENZOFLAVONE, Method: PREINCUBATION).
